Entries after “also recorded” stand apart in the source; their conditions may differ. Like-named read-outs stand apart in the source and are kept apart here.
Assays:
[1] = system: BH4 domain deficient Bcl2 mutant protein (ΔBH4); experiment: fluorescence polarization assay with fluorescent Bak peptide; type: binding
Procedure: (§1) Purified recombinant WT and a panel of Bcl2 BH domain deletion mutant proteins (i.e. ΔBH1, ΔBH2, ΔBH3 and ΔBH4) were commercially obtained from ProteinX Lab. To directly measure BDA-2/Bcl2 binding, a fluorescence polarization assay with a fluorescent Bak peptide (5′-[…]) was performed.

[2] = system: Bcl2 ΔBH1 deletion mutant protein; experiment: as above; type: binding
Procedure: as §1

[3] = molecular target: Bcl2 (Homo sapiens, UniProt P10415); experiment: as above; type: binding
Procedure: as §1

[4] = system: Bcl2 ΔBH3 deletion mutant protein; experiment: as above; type: binding
Procedure: as §1

[5] = system: Bcl2 ΔBH2 deletion mutant protein; experiment: as above; type: binding
Procedure: as §1

[6] = system: H1299 cells or isolated mitochondria; experiment: H1299 cells or isolated mitochondria expressing WT, ΔBH3 Bcl2 or vector: IP and Cyt c release; type: cell-based
Procedure: (§2) To further test whether the BH3 domain of Bcl2 is important for BDA-366 activation of Bax, purified recombinant WT and the BH3 deletion (ΔBH3) mutant Bcl2 proteins were incubated with purified Bax protein in the absence or presence of BDA-366, followed by IP with 6A7 antibody. […] To test this at the cellular or mitochondrial level, WT, ΔBH3 Bcl2 mutant and empty vector (pCIneo) were transfected into H1299 cells that express undetectable levels of endogenous Bcl2 but high levels of endogenous Bax. Cells or isolated mitochondria from these cells were treated with BDA-2, followed by IP with Bcl2 BH3 or 6A7 antibody, respectively.
To further test whether BDA-366 induces Cyt c release from mitochondria in a Bcl2 dependent fashion, mitochondria were isolated from H1299 cells expressing WT, ΔBH3 mutant Bcl2 or vector-only control. The isolated mitochondria were treated with BDA-366 (1 μM) for 30 min at 30° C. After centrifugation, Cyt c in the supernatant (i.e. Cyt c release) was analyzed by Western blot.

[7] = system: normal small airway epithelial cell line (SAEC); experiment: cell growth (SRB) and apoptosis (Annexin V/PI), normal cells; type: cell-based
[8] = system: Plasmid pUC19 DNA; experiment: electrophoretic mobility shift assay (EMSA); type: binding
Procedure: To test whether BDA-2 reacts with DNA as a crosslinker, electrophoretic mobility shift assay (EMSA) was performed. Cisplatin, a known DNA binding agent, was used as positive control. Plasmid pUC19 DNA was incubated with BDA-2 or cisplatin.

[9] = system: lung cancer xenografts derived from H460 cells; experiment: H460 lung cancer xenografts
Procedure: Each group included 8 mice. Tumor volume was measured once every 2 days. After 14 days, the mice were sacrificed and the tumors were removed and analyzed.
To assess whether BDA-366 induced suppression of tumor growth via apoptosis in vivo, representative samples from harvested tumor tissues were analyzed by immunohistochemistry (IHC) for active caspase 3 or TUNEL assat.

[10] = system: purified recombinant Bax; experiment: cell-free Bax activation (IP using 6A7 Bax antibody); type: biochemical
Procedure: BDA-366-induced Bcl2 conformational change was also confirmed by immunofluorescence using a Bcl2/BH3-domain specific antibody. […] To test this possibility, a 6A7 Bax antibody that only recognizes the conformationally changed, active, form of Bax was employed. Purified Bcl2 was treated with BDA-366 in lysis buffer for 1 h. The mixture of Bcl2/BDA-2 was then incubated with purified recombinant Bax for another 2 h, followed by IP using 6A7 antibody.
as §2

[11] = system: H1299 cells overexpressing Bcl2 AAAA mutant; experiment: cell survival of H1299 cells overexpressing compound Bcl2 AAAA mutant; type: cell-based
Excerpt: (§3) A panel of Bcl2 mutants were generated within the BH4 domain at the specific residues that were identified by the initial docking simulations, including D10A, N11A, R12A, E13A, M16A, K17A, H20A and D31A Bcl2 mutants. A compound Bcl2 mutant D10A/N11A/R12A/E13A (AAAA) was created. Recombinant proteins of these mutants were generated for BDA-2/Bcl2 binding analysis using a competitive fluorescence polarization. […] Second, WT and all Bcl2 mutants were exogenously overexpressed in H1299 cells that express undetectable levels of endogenous Bcl2.

[12] = system: SCLC cell lines; experiment: growth of SCLC cell lines; type: cell-based
[13] = molecular target: Mc1-1 (Homo sapiens, UniProt Q07820); experiment: binding to other Bcl2 family members
[14] = molecular target: purified, human Bcl2 protein (Homo sapiens, UniProt P10415); experiment: competition fluorescence polarization assay (FITC-QDCMWSGFSA peptide); type: binding; conditions: 3 nM peptide, 6 nM Bcl2
Procedure: Thus, the change of mP reflects the interaction between the fluorescent-labeled peptide and the Bcl2 protein. Data (i.e. mP value) can be imported into Prism 3.0 to determine the dissociation constant (Kd) and the binding range for each peptide.
This interaction between Bcl2 and the peptide forms the basis for the fluorescence polarization assay.
The plate was mixed on a shaker for 1 min and incubated at room temperature for an additional 15 min. The polarization, as defined as mP units, was measured at room temperature with a fluorescence microplate reader (Wallace, Calif.). A negative control (DMSO, 3 nM peptide and assay buffer) and a positive control (DMSO, 3 nM peptide, 6 nM Bcl2 and assay buffer) were used to determine the range of the assay.

[15] = in vivo
Procedure: In order to define the appropriate doses for in vivo experimentation, the maximum tolerated dose (MTD) was determined. Nu/Nu nude mice were treated in groups of 6 per dose level with increasing doses of BDA-366 (10-50 mg/kg/d) intraperitoneally (i.p.) for up to 12 days. […] Standard single-dose MTD treatment in normal C57BL/6 mice were measured. […] 10% of single dose MTD can usually be considered as the maximum therapeutic dose (30˜40 mg/kg) for continuous treatment.

[16] = molecular target: T1, Bcl2 mutant D10A/N11A/R12A/E13A (AAAA) (Homo sapiens, UniProt P10415, D10A/E13A/N11A/R12A); experiment: competitive fluorescence polarization, compound BH4 mutant; type: binding
T1 construct: made in house
Excerpt: as §3

[17] = system: PDX obtained from a patient with refractory SCLC; experiment: patient-derived xenografts (PDX) of refractory SCLC; type: in vivo, Mice; conditions: 20 mg/kg/d i.p., 2 weeks
Procedure: Mice carrying xenografts derived from a patient with refractory SCLC were treated with BDA-366 (20 mg/kg/d) via i.p. for 2 weeks.
To evaluate the anti-tumor activity of BDA-2 against SCLC in vivo, patient-derived xenografts (PDX) were established without intervening in vitro culture, which are expected to better recapitulate the SCLC tumor setting.

[18] = 10, 20, 30 mg/kg/d i.p., 14 days

Mc1-1, sequence (Q07820 whole entry): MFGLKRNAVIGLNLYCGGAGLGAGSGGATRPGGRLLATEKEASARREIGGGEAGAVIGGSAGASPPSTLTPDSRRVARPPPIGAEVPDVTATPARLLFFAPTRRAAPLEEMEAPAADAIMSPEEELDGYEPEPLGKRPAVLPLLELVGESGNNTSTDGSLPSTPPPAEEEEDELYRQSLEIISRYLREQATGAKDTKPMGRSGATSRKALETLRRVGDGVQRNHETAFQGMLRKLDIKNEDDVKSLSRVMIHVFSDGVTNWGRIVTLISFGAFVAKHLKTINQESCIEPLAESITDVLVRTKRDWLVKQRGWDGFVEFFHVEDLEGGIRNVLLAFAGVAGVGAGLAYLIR
Bcl2, sequence (P10415 whole entry): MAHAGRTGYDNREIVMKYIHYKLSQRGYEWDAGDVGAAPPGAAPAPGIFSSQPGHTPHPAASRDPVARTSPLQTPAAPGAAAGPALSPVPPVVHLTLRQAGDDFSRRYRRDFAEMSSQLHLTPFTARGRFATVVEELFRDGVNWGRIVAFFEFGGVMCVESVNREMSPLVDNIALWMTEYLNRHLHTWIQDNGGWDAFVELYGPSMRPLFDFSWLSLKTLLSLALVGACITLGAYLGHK
T1 sequence (P10415 whole entry D10A/N11A/R12A/E13A): as the sequence (P10415 whole entry) above, with D10A, N11A, R12A, E13A counted along it
purified, human Bcl2 protein, sequence (P10415 whole entry): as the sequence (P10415 whole entry) above

In the case of `CCN(CC)CC(O)CNc1ccc(NCC2CO2)c2c1C(=O)c1ccccc1C2=O` (centres unmarked) [BDA-366, 1-((3-(diethylamino)-2-hydroxypropyl)amino)-4-((oxiran-2-ylmethyl)amino)anthracene-9,10-dione], the “binding to ΔBH4 Bcl2” value [1] is reported as “failed to bind”, the “binding after deletion of BH1” value [2] is reported as “did not significantly affect its BDA-2 binding” and the Ki ([3]; fluorescent Bak peptide, WT Bcl2) is reported as 3.3 ± 0.73 nM. For the same compound, the “inhibitory constant (Ki) value” ([3]; purified Bcl2 protein, BH4 domain) was “nanomolar level”, the “binding after deletion of BH3” value [4] was “did not significantly affect its BDA-2 binding” and the “binding after deletion of BH2” value [5] was “did not significantly affect its BDA-2 binding”. For the same compound, the “Cyt c release from isolated mitochondria” value ([6]; WT Bcl2, 1 μM, 30 min at 30° C.) was “induced Cyt c release”, the “Bcl2 conformational change and Bax activation” value ([6]; cells or isolated mitochondria containing WT Bcl2) was “induced Bcl2 conformational change in association with Bax activation” and the “Bcl2 conformational change and Bax activation” value ([6]; ΔBH3 Bcl2 mutant or vector-only control) was “not”. For the same compound, the “sensitivity of normal cells” value [7] was “less sensitive”, the “binding to pUC19 DNA causing mobility shift” value [8] was “not” and the body weight ([9]; 30 mg/kg) was “Weight loss was observed”. The “neutrophils, lymphocytes, RBC and platelets in blood” value ([9]; 30 mg/kg) was “no decreases in neutrophils, lymphocytes, red blood cells (RBC) and platelets (PLT)”, the “apoptosis in tumor tissues (active caspase 3 IHC or TUNEL)” value [9, 18] was “dose-dependent apoptosis induction” and the “tumor growth / repression of lung cancer in vivo” value [9, 18] was “potently suppress lung cancer growth in vivo; also recorded: dose-dependent repression of lung cancer in vivo”. The “tumor growth / repression of lung cancer in vivo” value ([9]; 10, 20, 30 mg/kg/d i.p., 14 days, listed as BDA-2) was “represses lung cancer in vivo”, the “histopathology of harvested normal tissues” value ([9]; 10-30 mg/kg/d) was “no evidence of normal tissue toxicities” and the “kidney (BUN) and liver (ALT and AST) function” value ([9]; mouse, in vivo) was “in the normal range”. The “Bax binding to 6A7 antibody induced by compound-treated Bcl2” value ([10]; Bcl2 treated 1 h, then Bax 2 h) was “enhanced the ability of Bax to bind to 6A7 antibody”, the “Bax activation by WT Bcl2 in the presence of compound” value ([10]; WT Bcl2) was “can activate Bax via 6A7 conformational change” and the “direct activation of Bax” value ([10]; without Bcl2) was “not a direct Bax activator”. For the same compound, the “Bax activation by ΔBH3 mutant Bcl2 in the presence of compound” value ([10]; ΔBH3 mutant Bcl2) was “not”, the “cell survival on exposure, AAAA mutant overexpressed” value [11] was “significantly prolonged cell survival” and the “growth of SCLC cell lines” value [12] was “efficiently suppressed growth of SCLC cell lines”. The “binding to Mc1-1” value [13] was “failed to bind”, the “binding to Mc1-1” value ([13]; listed as BDA-2) was “did not bind” and the Ki [14] was 0.93 ± 0.08 nM. The “time to death of mice” value ([15]; C57BL/6, mouse, 400 mg/kg) was 4 days, the MTD ([15]; C57BL/6, mouse, maximum therapeutic dose for continuous treatment (10% of single dose MTD)) was 30 to 40 mg/kg and the MTD ([15]; C57BL/6, mouse, single dose MTD) was 300 to 400 mg/kg. The “ALT and AST” value ([15]; mouse, 400 mg/kg) was “significantly enhanced”, the “pathological analysis for all organs” value ([15]; mouse, 400 mg/kg) was “microsteatosis in the liver and atrophic white pulp in the spleen” and the “weight loss or other toxicities (hematologic, liver and kidney functions)” value ([15]; mouse, ip, 300 mg/kg) was “did not cause weight loss or other toxicities”. The “binding to AAAA Bcl2 mutant protein” value [16] was “remarkably decreased BDA-2 binding” and the “growth of SCLC PDX” value [17] was “effectively suppressed the growth of PDX; also recorded: potently suppressed the growth of the SCLC PDX; also recorded: represses tumor growth in xenografts derived from SCLC patient”.
